Among the test systems are HL-60(TB) leukemia; T-47D breast; NCI-H522 lung; 786-0 renal; SF-539 CNS; OVCAR-5 ovarian; ACHN renal; OVCAR-3 ovarian; M14 melanoma; U251 CNS.
Common to all, as to assay: growth of human tumour cells (NCI), 48 h

Each structure is given as a SMILES string.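 Tested at 5 concentrations; 48 h exposure; 96-well plates; endpoints linearly interpolated, else capped at highest concentration. At the GI50, growth is halved. Definition used: TGI = concentration required for complete inhibition of growth.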

Regarding `O=C(c1nc2ccccc2[nH]1)C1C(c2cccc([N+](=O)[O-])c2)C2CC3CCCCC3N2[C@@]12C(=O)Nc1cc(Cl)ccc12` (some centres undefined), the GI50 was 2.58 µM with HL-60(TB) leukemia; 0.998 µM in the assay with T-47D breast; 1.67 µM in the assay on NCI-H522 lung; 1.89 µM with 786-0 renal; 1.69 µM in the assay with SF-539 CNS; 1.48 µM in the assay on OVCAR-5 ovarian. Further, the GI50 in the assay on ACHN renal was 2.23 µM. The TGI in the assay with HL-60(TB) leukemia is 6.67 µM; with T-47D breast, above 100 µM; with NCI-H522 lung it was 4.38 µM; in the assay on 786-0 renal, 4.52 µM; in the assay on SF-539 CNS it was 3.19 µM; in the assay on OVCAR-5 ovarian, 3.11 µM. The compound further gave a TGI with ACHN renal of 7.2 µM.
In the case of `CCOC(=O)Nc1ccc2nc(Sc3ccc(Cl)cc3)sc2c1`, the GI50 in the assay on HL-60(TB) leukemia is 0.815 µM; with OVCAR-3 ovarian it was 1.89 µM; in the assay with T-47D breast, 5.93 µM; in the assay on NCI-H522 lung, 2.47 µM; in the assay on M14 melanoma, 1.66 µM; in the assay on 786-0 renal it was 8.12 µM. Moreover, the GI50 with SF-539 CNS is 2.92 µM; in the assay with OVCAR-5 ovarian it was 21.6 µM; in the assay with ACHN renal, 11.5 µM; in the assay with U251 CNS it was 3.15 µM. Besides, the TGI was 30.1 µM in the assay with HL-60(TB) leukemia; above 32.6 µM in the assay with OVCAR-3 ovarian; above 78.7 µM in the assay on T-47D breast; 35.2 µM with NCI-H522 lung; 24.6 µM in the assay with M14 melanoma; 40.3 µM in the assay with 786-0 renal. The TGI in the assay on SF-539 CNS was 22.1 µM; in the assay on OVCAR-5 ovarian it was above 100 µM; in the assay on ACHN renal it was above 90.4 µM; in the assay on U251 CNS it was 44.6 µM.
As to `CCOC(=O)CCC(NC(=O)c1ccc(Nc2nc3cc(N)cc(N)c3nc2-c2ccccc2)cc1)C(=O)OCC` (centres undefined), the GI50 is 9.62 µM with HL-60(TB) leukemia; 13.4 µM in the assay with OVCAR-3 ovarian; 6.7 µM in the assay with T-47D breast; 27.9 µM in the assay with NCI-H522 lung; 11.9 µM in the assay on M14 melanoma; above 42.3 µM in the assay on 786-0 renal. In addition, the GI50 in the assay with SF-539 CNS was 27.3 µM; in the assay with OVCAR-5 ovarian it was 57.1 µM; with ACHN renal, above 35.9 µM; in the assay on U251 CNS, above 44.7 µM. Further, the TGI is 50.7 µM in the assay with HL-60(TB) leukemia; 39.4 µM with OVCAR-3 ovarian; above 22.1 µM with T-47D breast; above 100 µM in the assay on NCI-H522 lung; above 24.4 µM in the assay on M14 melanoma; above 60.9 µM in the assay on 786-0 renal. Moreover, the TGI with SF-539 CNS was above 100 µM; with OVCAR-5 ovarian, above 93.2 µM; with ACHN renal it was above 68.6 µM; with U251 CNS, above 66 µM.
On to `CCn1c(-c2nonc2N)nc2c(C#CC(C)(C)O)ncc(OCC3CCNCC3)c21`, for which the GI50 in the assay with HL-60(TB) leukemia is 6.63 µM; in the assay on OVCAR-3 ovarian it was 7.07 µM; in the assay with T-47D breast it was above 25 µM; in the assay on NCI-H522 lung it was 9.07 µM; in the assay with M14 melanoma it was 13.4 µM; in the assay with 786-0 renal, 6.11 µM. The GI50 with SF-539 CNS was 3.36 µM; in the assay with OVCAR-5 ovarian, above 25 µM; in the assay with ACHN renal, 8.13 µM; with U251 CNS it was 3.99 µM. For the same compound, the TGI in the assay with HL-60(TB) leukemia is 17.2 µM; with OVCAR-3 ovarian it was above 23.6 µM; in the assay on T-47D breast, above 25 µM; in the assay on NCI-H522 lung, above 25 µM; in the assay with M14 melanoma it was above 25 µM; in the assay with 786-0 renal it was 24.6 µM. In addition, the TGI with SF-539 CNS was above 20.7 µM; with OVCAR-5 ovarian it was above 25 µM; in the assay with ACHN renal, above 25 µM; in the assay on U251 CNS, above 25 µM.
Consider `COC(=O)[C@@H](C)C[C@H](Cc1ccccc1)NC(=O)c1csc([C@@H](C[C@H](C(C)C)N(C)C(=O)[C@@H](NC(=O)CN(C)C)C2CC2)OC(C)=O)n1`, for which the GI50 in the assay on HL-60(TB) leukemia was 0.00272 µM; in the assay on OVCAR-3 ovarian it was 0.00309 µM; in the assay with T-47D breast, above 16.5 µM; in the assay with NCI-H522 lung it was 0.0033 µM; with M14 melanoma it was 0.0185 µM; in the assay on 786-0 renal, 0.0382 µM. Moreover, the GI50 was 0.022 µM in the assay on SF-539 CNS, 0.838 µM in the assay with OVCAR-5 ovarian, 0.0938 µM with ACHN renal and 0.055 µM with U251 CNS. In addition, the TGI is 0.0106 µM in the assay on HL-60(TB) leukemia; above 16.5 µM in the assay on T-47D breast; 0.26 µM with NCI-H522 lung; above 16.5 µM with 786-0 renal; 0.0925 µM in the assay on SF-539 CNS; above 16.5 µM in the assay with OVCAR-5 ovarian. The TGI in the assay with ACHN renal and in the assay on U251 CNS was above 16.5 µM each time.
In the case of `CC[C@@]1(O)C(=O)N(CCN(C)C)Cc2c1cc1n(c2=O)Cc2cc3ccccc3nc2-1`, the GI50 in the assay with HL-60(TB) leukemia was 5.4 µM; with OVCAR-3 ovarian, above 100 µM; in the assay with T-47D breast, 21 µM; in the assay on NCI-H522 lung it was 7.05 µM; in the assay on M14 melanoma it was 9.31 µM; in the assay on 786-0 renal, 8.09 µM. In addition, the GI50 in the assay with SF-539 CNS is 3.77 µM; with OVCAR-5 ovarian, above 100 µM; in the assay on ACHN renal it was 4.31 µM; in the assay on U251 CNS, 18.9 µM. The TGI in the assay on HL-60(TB) leukemia is above 100 µM; in the assay on OVCAR-3 ovarian it was above 100 µM; with T-47D breast, above 100 µM; in the assay with NCI-H522 lung it was above 89 µM; in the assay on M14 melanoma, above 100 µM; with 786-0 renal, above 100 µM. For the same compound, the TGI in the assay with SF-539 CNS is 13.1 µM; in the assay with OVCAR-5 ovarian it was above 100 µM; in the assay with ACHN renal, above 100 µM; with U251 CNS, above 100 µM.
For the compound `NC(=S)c1cn(C2OC(CO)C(O)C2O)c2ncnc(N)c12` (centres undefined), the GI50 with HL-60(TB) leukemia is 0.18 µM; in the assay on OVCAR-3 ovarian it was 0.173 µM; in the assay with T-47D breast it was 0.0195 µM; with NCI-H522 lung, 0.168 µM; with M14 melanoma, 0.0989 µM; in the assay with 786-0 renal it was 0.356 µM. Moreover, the GI50 in the assay on SF-539 CNS is 0.27 µM; in the assay on OVCAR-5 ovarian it was 0.353 µM; in the assay with ACHN renal, 0.229 µM; with U251 CNS, 0.292 µM. Also, the TGI worked out at 26.7 µM in the assay on HL-60(TB) leukemia; 1.23 µM in the assay on OVCAR-3 ovarian; 0.0929 µM with T-47D breast; 0.554 µM in the assay on NCI-H522 lung; 0.354 µM with M14 melanoma; 1.55 µM with SF-539 CNS. In the assay with U251 CNS, this compound had a TGI of 8.71 µM.
Turning to `CO[C@H]1/C=C/C=C/C=C/C[C@H](OC(=O)[C@@H](C)NC(=O)C2CCCCC2)[C@H](C)[C@@H](O)/C(C)=C\CCC2=CC(=O)C=C(NC(=O)C1)C2=O`, the GI50 is 0.167 µM with HL-60(TB) leukemia; 0.154 µM in the assay with OVCAR-3 ovarian; 0.105 µM with T-47D breast; 0.104 µM in the assay on NCI-H522 lung; 0.119 µM with M14 melanoma; 0.177 µM in the assay with 786-0 renal. The GI50 with SF-539 CNS is 0.128 µM; with OVCAR-5 ovarian, 0.324 µM; in the assay with ACHN renal, 0.223 µM; in the assay on U251 CNS, 0.0985 µM. In addition, the TGI in the assay with HL-60(TB) leukemia amounted to 0.839 µM; with OVCAR-3 ovarian, 0.997 µM; in the assay on T-47D breast it was 1.06 µM; with NCI-H522 lung, 0.823 µM; in the assay on M14 melanoma, 0.746 µM; in the assay on 786-0 renal it was 1.32 µM. In addition, the TGI with SF-539 CNS came out at 0.519 µM; with OVCAR-5 ovarian, 2.89 µM; in the assay on ACHN renal, 1.31 µM; in the assay with U251 CNS, 0.953 µM.

The values are drawn from PubChem BioAssay (NCI).
